Measured values reported in US7553844B2 (Jarrow Formulas, Inc., priority 2003, dated 2009).

Key:
[1] = tested on: primary HIV-1 isolates; format: cell-based; conditions: 1 μM CQ; data not shown
Text: (§1) Laboratory-adapted HIV-1IIIB and HIV-2CBL/20 strans, the primary isolates HIV-1UG3 (Clade A, R5) and HIV-1VI 829 (Clade C, R5), both obtained from antiretroviral-naive subjects were used. These viruses are fully described in the paper by Savarino A. et al. referenced above. The HIV-1PAVIA12 isolate was also used. It was donated by Dr. Maurizia Debiaggi, University of Pavia, Italy, who also performed its genotypic analysis. It belongs to Clade B and was isolated from an individual with HAART failure. […] Viral stocks were titrated biologically by the 50% endpoint dilution method, using MT-2 cells (laboratory strains) or PHA-activated peripheral blood mononuclear cells (PBMC) (primary isolates).
(§2) In acute infection assays, the appropriate cell types were incubated at 37° C. for 2 h with the viral stock suspensions at a multiplicity of infection (MOI) of approximately 0.1, unless otherwise specified. After three washes, cells were incubated in fresh culture medium for 7 days at 37° C., and cell-free supernatants at different intervals post-infection were harvested for ELISA measurement of HIV-1 p24 (NEN Life Science Prod., Boston Mass.) or HIV-2 p27 (Coulter, Hialeah, Fla.) (26, 33).
(§3) Tests were conducted to evaluate the concentrations of each drug in the different combinations that produced 90% inhibition of HIV-1 replication. For each drug combination, the FIC was determined. […]

[2] = tested on: HIV-1 IIIB; test: acute infection assay, HIV-1 p24 ELISA, MT-4 cells; format: cell-based; conditions: Human immunodeficiency virus 1, MT4; HIV-1 IIIB-infected MT-4 cells; data not shown
Text: as §1, §2
A fractional inhibitory concentration (FIC) was then calculated as drug EC90 of drug A in combination with drug 2/EC90 of drug B alone. The effect was considered to be synergistic when the sum of FICs was ≦0.5. […]

[3] = tested on: P. falciparum (3D7, Ibginovia); test: P. falciparum LDH activity, protease inhibitors alone; format: cell-based, Plasmodium falciparum; conditions: PI alone, 48 h, clinically observable concentrations
Method: Results are shown as a percentage of control values.
(§4) Ibginovia is an isolate obtained at the Istituto Superiore di Sanità, Rome, Italy, positive for mutations in the codons K76 and A220 of the pfcrt gene conferring CQ resistance. The parasite's origin is Nigeria. All parasites were maintained in vitro in RPMI 1640 medium to which was added human type A red blood cells (RBC) and 10% heat-inactivated human serum. All cultures were placed in a humidified incubator at 37° C. with a gas-controlled environment of 3% O2, 6% CO2, and 91% N2 and fed according to established procedures.
(§5) This assay is based on the principle that plasmodial lactate dehydrogenase (LDH) can use 3-acetylpyridine NAD (APAD) as a coenzyme, which is converted to APADH during lactate oxidation. All samples for LDH determination were measured spectrophotometrically at 650 nm. For these measurements, 10-50 μl of the malaria sample was added to the Mastat reagent, which is an optimized formulation for parasite LDH detection. […] The formation of APADH was determined at 650 nm using a multiwavelength plate reader. Each well of a test microtiter plate was automatically measured at 30-sec. intervals, and the individual data points were stored and subsequently plotted with a software program. […] As APADH is formed, the NBT is reduced and forms a formazan product that is blue and can be detected visually and measured at 650 nm. […]

[4] = tested on: CQ-sensitive P. falciparum strain (3D7); test: P. falciparum LDH activity, CQ with or without PI, 3D7; format: cell-based, Plasmodium falciparum
Method: (§6) A fractional inhibitory concentration (FIC) was then calculated as drug EC90 of drug A in combination with drug 2/EC90 of drug B alone. The effect was considered to be synergistic when the sum of FICs was ≦0.5.
(§7) This assay is based on the principle that plasmodial lactate dehydrogenase (LDH) can use 3-acetylpyridine NAD (APAD) as a coenzyme, which is converted to APADH during lactate oxidation. All samples for LDH determination were measured spectrophotometrically at 650 nm. For these measurements, 10-50 μl of the malaria sample was added to the Mastat reagent, which is an optimized formulation for parasite LDH detection. The samples consisted of malaria cultures. All aliquots were added to 0.2 ml of the Malstat reagent using a 96-well microtiter plate format. The formation of APADH was determined at 650 nm using a multiwavelength plate reader. Each well of a test microtiter plate was automatically measured at 30-sec. intervals, and the individual data points were stored and subsequently plotted with a software program. The spectrophotometric assessment of LDH activity was facilitated by adding NBT (0.24 mM) and PES (0.033 mM) to Malstat reagent. As APADH is formed, the NBT is reduced and forms a formazan product that is blue and can be detected visually and measured at 650 nm. This assay is specific for parasitic LDH and is not influenced by the human enzyme. […]

[5] = tested on: UG3 (HIV-1 Clade A); test: infection of PBMC with primary isolate UG3, p24; format: cell-based; conditions: without CQ
Text: as §1, §2, §3

[6] = tested on: CQ-resistant P. falciparum strain (W2); test: P. falciparum LDH activity, CQ with or without PI, W2; format: cell-based, Plasmodium falciparum
Method: as §6, §7

[7] = tested on: CQ-resistant P. falciparum field isolate (Ibginovia); test: P. falciparum LDH activity, CQ with or without PI, Ibginovia; format: cell-based, Plasmodium falciparum; conditions: PI with CQ, 48 h; PI at sub-optimally inhibiting concentration
Text: In order to illustrate typical results, data are shown as a mean ±S.D. optical density (O.D.) at the end of a reaction mediated by plasmodial lactate dehydrogenase (LDH), as described in the Materials and Methods of the EXAMPLES section. The O.D. values are directly proportional to P. falciparum cell viability.
as §4, with “All cultures were placed in a humidified incubator at 37° C. with a gas-controlled environment of 3% O2, 6% CO2, and 91% N2 and fed according to established procedures.” left out
as §5, with “nm.” for “nm. For these measurements, 10-50 μl of the malaria sample was added to the Mastat reagent, which is an optimized formulation for parasite LDH detection.”

[8] = tested on: P. berghei; test: murine malaria model, Balb/c mice infected with P. berghei; format: in vivo, Plasmodium berghei; conditions: 50 or 150 mg/kg intragastrically
Method: FIG. 6. Antimalarial effects of RTV in mice infected with Plasmodium berghei.
FIG. 6A. Effects of RTV (50 mg/kg) on P. berghei growth in Balb/c mice. Results are shown as an average ±S.D. of the percentage of parasitized red blood cells at different days of follow-up.
FIG. 6B. Effects of RTV (50 mg/kg) on survival of mice infected with P. berghei. Results are shown as Kaplan Meyer curves and the P value for difference in survival is reported.
FIG. 6C. Effects of RTV (150 mg/kg) on P. berghei growth in Balb/c mice. Results are shown as an average ±S.D. of the percentage of parasitized red blood cells at different days of follow-up.
FIG. 6D. Effects of RTV (150 mg/kg) on survival of mice infected with P. berghei. Results are shown as Kaplan Meyer curves and the P value for difference in survival is reported.
Parasitemia was determined by light microscopy using Giemsa-stained thin smears and with fluorescence microscopy using the dye benzothiocarboxypurine.
To evaluate the effects of a PI in an animal model of malaria, Balb/c mice were inoculated intraperitoneally with P. berghei and then divided into three groups: 1) mock-treated with an intragastric inoculation of phosphate-buffer saline (PBS), 2) treated intragastrically with the ritonavir diluent (i.e., a 47% alcoholic solution) in the absence of ritonavir (placebo), and 3) treated intragastrically with 50 or 150 mg/kg.

## CCN(CC)CCCC(C)Nc1ccnc2cc(Cl)ccc12 (stereo not shown) [CQ, Chloroquine]
[1]
  inhibitory effect of CQ alone: minimal

## CC(C)(C)NC(=O)[C@@H]1CN(Cc2cccnc2)CCN1C[C@@H](O)C[C@@H](Cc1ccccc1)C(=O)N[C@H]1c2ccccc2C[C@H]1O [IDV, indinavir]
[2]
  EC50: ~10 nM
[3]
  P. falciparum growth (LDH activity): dose-dependently inhibited P. falciparum growth
[4]; CQ+PI combination, 3D7 strain
  sum of FICs: > 0.5
[4]; IDV (5 μM) with CQ, compared with CQ-resistant strains
  effects of IDV on CQ-response: less dramatic
[5]; 100 nM IDV, 5 days after infection
  p24 levels in supernatants: typical peak in the p24 levels in supernatants
[5]
  IDV concentration at which inhibitory effects were visible: 1 µM
[6]; CQ+PI combination, W2 strain, ≦0.5 indicates synergism
  sum of FICs: ≤ 0.5
[6]; IDV (5 μM) with CQ, 48 h
  response to CQ in CQ-resistant P. falciparum: restored the response to CQ

## CC(C)c1nc(CN(C)C(=O)N[C@H](C(=O)N[C@@H](Cc2ccccc2)C[C@H](O)[C@H](Cc2ccccc2)NC(=O)OCc2cncs2)C(C)C)cs1 [RTV, ritonavir]
[3]
  P. falciparum growth (LDH activity): dose-dependently inhibited P. falciparum growth
[7]
  response to CQ in CQ-resistant P. falciparum: restored the response to CQ
[8]; Balb/c mice
  parasite multiplication in mice: dose-dependently retarded parasite multiplication in mice
[8]; Kaplan-Mayer curves
  survival of treated mice: increased survival of treated mice in a significant manner
